In patent US9822147B2, “Methods of treating ophthalmic diseases using NPR-B agonists” (priority 2009, dated 2017):
Numbered stars: 1 amine (or outer) side, 2 acyl side, 3 side chain; on linkers, the order of the positions; unused ones are H or OH. Square brackets hold non-standard residues; d marks the D form. Peptide text beside a SMILES is read from it. * marks the point of attachment. X12 = CC(C)(C)CNC[C@@H](N[*:1])C(=O)[*:2]; Pro(4R-NH2) = N[C@H]1CN[C@H](C(=O)O)C1; dOrn(Me2) = CN(C)CCC[C@@H](N)C(=O)O; X2 = O=C([C@H]1CCCN([*:1])C1)[*:2]; dDap(Me2) = CN(C)C[C@@H](N)C(=O)O; Hyp = O=C(O)[C@@H]1C[C@@H](O)CN1; tBuAla = CC(C)(C)C[C@H](N)C(=O)O; NHcycloheptyl = C1CCCC(N*)CC1; NMeL = CN[C@@H](CC(C)C)C(=O)O; dOrn = NCCC[C@@H](N)C(=O)O; Ac6c = NC1(C(=O)O)CCCCC1; Octanoyl = CCCCCCCC(=O)*; Api = NC1(C(=O)O)CCNCC1

These compounds were tested against T1, NPR-B (Homo sapiens, UniProt P20594) (assay: NPR-B induced production of cyclic GMP in human glaucoma trabecular meshwork cells (GTM-3)). Conditions: group by EC50 and Emax (CNP = 100%); Table 4; read-out: Activity (group), NPR-B activation assayed with GTM-3 cells.
T1 construct: a functional assay using endogenously NPR-B expressing GTM-3 cells; endogenous in cells; host or cells: GTM-3 (human glaucoma trabecular meshwork cells)
T1 sequence (P20594 23-1047): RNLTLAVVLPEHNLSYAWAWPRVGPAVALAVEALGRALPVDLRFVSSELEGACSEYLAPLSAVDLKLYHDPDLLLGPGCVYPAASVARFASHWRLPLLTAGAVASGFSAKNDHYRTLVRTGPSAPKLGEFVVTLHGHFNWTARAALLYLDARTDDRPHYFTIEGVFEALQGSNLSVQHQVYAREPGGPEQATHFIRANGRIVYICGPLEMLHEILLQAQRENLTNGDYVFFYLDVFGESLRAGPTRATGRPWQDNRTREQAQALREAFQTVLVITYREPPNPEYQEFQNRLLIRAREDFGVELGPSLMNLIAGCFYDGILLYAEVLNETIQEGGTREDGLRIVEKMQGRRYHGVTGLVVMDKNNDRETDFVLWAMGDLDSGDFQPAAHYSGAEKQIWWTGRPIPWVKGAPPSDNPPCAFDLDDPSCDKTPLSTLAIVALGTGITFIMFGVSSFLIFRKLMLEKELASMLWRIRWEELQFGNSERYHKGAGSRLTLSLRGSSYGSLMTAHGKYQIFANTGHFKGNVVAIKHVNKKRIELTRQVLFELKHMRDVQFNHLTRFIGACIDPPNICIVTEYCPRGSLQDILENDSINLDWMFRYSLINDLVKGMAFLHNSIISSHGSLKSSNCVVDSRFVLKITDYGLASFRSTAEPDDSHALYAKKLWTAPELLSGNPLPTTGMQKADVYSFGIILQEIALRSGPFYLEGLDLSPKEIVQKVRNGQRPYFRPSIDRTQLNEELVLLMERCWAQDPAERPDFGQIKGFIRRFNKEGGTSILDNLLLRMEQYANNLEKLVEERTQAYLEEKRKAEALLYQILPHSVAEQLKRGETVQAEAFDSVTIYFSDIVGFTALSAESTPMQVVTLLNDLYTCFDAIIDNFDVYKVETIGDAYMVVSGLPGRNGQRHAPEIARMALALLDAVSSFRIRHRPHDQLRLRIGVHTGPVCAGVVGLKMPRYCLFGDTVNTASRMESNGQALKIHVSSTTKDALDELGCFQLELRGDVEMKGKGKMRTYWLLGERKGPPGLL
Type: cell-based
Compound `CCCCCCCC(=O)N[C@H](C)C(=O)N[C@@H](Cc1ccc(Cl)cc1)C(=O)N[C@H](CC(C)C)C(=O)N[C@@H](CC(C)C)C(=O)N1C[C@H](O)C[C@H]1C(=O)N[C@@H](CC(C)C)C(=O)N[C@@H](CC(=O)O)C(=O)N[C@@H](CCCNC(=N)N)C(=O)N[C@H](C(N)=O)[C@@H](C)CC` [JAL-1050, Occ-ala-Pcf-leu-Leu-Hyp-Leu-Asp-Arg-Ile-NH2] (HELM PEPTIDE1{[CCCCCCCC(=O)[*:2]].[dA].[O=C([C@H](Cc1ccc(Cl)cc1)N[*:1])[*:2]].[dL].L.[Hyp].L.D.R.I.[am]}$$$$V2.0) has an EC50 of less than 1000 nM. Compound `CCCCCCCC(=O)N1CCC[C@H](C(=O)N(C)[C@@H](Cc2ccccc2)C(=O)N[C@H](CC(C)C)C(=O)N[C@@H](CC(C)C)C(=O)N2C[C@H](O)C[C@H]2C(=O)N(C)[C@@H](CC(C)C)C(=O)N[C@@H](CC(=O)O)C(=O)N[C@@H](CCCNC(=N)N)C(=O)N[C@H](C(N)=O)[C@@H](C)CC)C1` [JAL-1573, Occ-Sni-Nmf-leu-Leu-Hyp-Nml-Asp-Arg-Ile-NH2] (HELM PEPTIDE1{[CCCCCCCC(=O)[*:2]].[O=C([C@H]1CCCN([*:1])C1)[*:2]].[meF].[dL].L.[Hyp].[meL].D.R.I.[am]}$$$$V2.0) has an EC50 of less than 1000 nM. For `CCCCCCCC(=O)N1CCC[C@H](C(=O)N[C@@H](Cc2ccccc2)C(=O)NC2(C(=O)N[C@@H](CC(C)C)C(=O)N3C[C@H](N)C[C@H]3C(=O)N(C)[C@@H](CC(C)C)C(=O)N[C@@H](CC(=O)O)C(=O)N3CCC[C@H]3C(=O)N[C@H](C(N)=O)[C@@H](C)CC)CCNCC2)C1` [JAL-1561, Occ-Sni-Phe-Apc-Leu-Tap-Nml-Asp-Pro-Ile-NH2] (Octanoyl-[X2]F[Api]L[Pro(4R-NH2)][NMeL]DPI-NH2), the EC50 was less than 1000 nM. In the case of `CCCCCCCC(=O)N1CCC[C@H](C(=O)N[C@@H](Cc2ccccc2)C(=O)N[C@H](CCCCN)C(=O)N[C@@H](CC(C)C)C(=O)N2C[C@H](O)C[C@H]2C(=O)N(C)[C@@H](CC(C)C)C(=O)N[C@@H](CC(=O)O)C(=O)N[C@@H](CCCNC(=N)N)C(=O)N[C@H](C(N)=O)[C@@H](C)CC)C1` [JAL-1254, Occ-Sni-Phe-lys-Leu-Hyp-Nml-Asp-Arg-Ile-NH2] (HELM PEPTIDE1{[CCCCCCCC(=O)[*:2]].[O=C([C@H]1CCCN([*:1])C1)[*:2]].F.[dK].L.[Hyp].[meL].D.R.I.[am]}$$$$V2.0), the EC50 is reported as less than 1000 nM. Compound `CCCCCCCC(=O)N[C@H](C)C(=O)N[C@@H](Cc1ccccc1)C(=O)NC1(C(=O)N[C@@H](CC(C)C)C(=O)N2C[C@H](O)C[C@H]2C(=O)N(C)[C@@H](CC(C)C)C(=O)N[C@@H](CC(=O)O)C(=O)N[C@@H](CCCNC(=N)N)C(=O)N[C@H](C(N)=O)[C@@H](C)CC)CCNCC1` [JAL-1338, Occ-ala-Phe-Apc-Leu-Hyp-Nml-Asp-Arg-Ile-NH2] (HELM PEPTIDE1{[CCCCCCCC(=O)[*:2]].[dA].F.[O=C(C1(N[*:1])CCNCC1)[*:2]].L.[Hyp].[meL].D.R.I.[am]}$$$$V2.0) has an EC50 of less than 1000 nM. Compound `CCCCCCCC(=O)N[C@H](C)C(=O)N[C@@H](Cc1ccccc1)C(=O)N[C@H](CN(C)C)C(=O)N[C@@H](CC(C)C)C(=O)N1C[C@H](N)C[C@H]1C(=O)N(C)[C@@H](CC(C)C)C(=O)N[C@@H](CC(=O)O)C(=O)N1CCC[C@H]1C(=O)N[C@H](C(N)=O)[C@@H](C)CC` [JAL-1453, Occ-ala-Phe-dap(Me2)-Leu-Tap-Nml-Asp-Pro-Ile-NH2] (Octanoyl-[dA]F[dDap(Me2)]L[Pro(4R-NH2)][NMeL]DPI-NH2) has an EC50 of less than 1000 nM. `CCCCCCCC(=O)N[C@H](C)C(=O)N[C@@H](Cc1ccccc1)C(=O)N[C@H](CC(C)C)C(=O)N[C@@H](CC(C)C)C(=O)N1C[C@H](O)C[C@H]1C(=O)N(C)[C@@H](CC(C)C)C(=O)N[C@@H](CC(=O)O)C(=O)N[C@@H](CCCNC(=N)N)C(=O)NC1(C(N)=O)CCCCC1` [JAL-1358, Occ-ala-Phe-leu-Leu-Hyp-Nml-Asp-Arg-Egz-NH2] (HELM PEPTIDE1{[CCCCCCCC(=O)[*:2]].[dA].F.[dL].L.[Hyp].[meL].D.R.[O=C(C1(N[*:1])CCCCC1)[*:2]].[am]}$$$$V2.0) showed an EC50 of less than 1000 nM. `CCCCCCCC(=O)N1CCC[C@H](C(=O)N[C@@H](Cc2ccccc2)C(=O)N[C@H](CC(C)C)C(=O)N[C@@H](CC(C)C)C(=O)N2C[C@H](O)C[C@H]2C(=O)N(C)[C@@H](CC(C)C)C(=O)N[C@H](C(=O)N[C@@H](CCCNC(=N)N)C(=O)N[C@H](C(N)=O)[C@@H](C)CC)[C@@H](C)O)C1` [JAL-1932, Occ-Sni-Phe-leu-Leu-Hyp-Nml-Thr-Arg-Ile-NH2] (HELM PEPTIDE1{[CCCCCCCC(=O)[*:2]].[O=C([C@H]1CCCN([*:1])C1)[*:2]].F.[dL].L.[Hyp].[meL].T.R.I.[am]}$$$$V2.0) was tested, and the EC50 was less than 1000 nM. Work on `CCCCCCCC(=O)N[C@H](C)C(=O)N[C@@H](Cc1ccccc1)C(=O)N[C@H](CO)C(=O)N[C@@H](CC(C)C)C(=O)N1C[C@H](O)C[C@H]1C(=O)N(C)[C@@H](CC(C)C)C(=O)N[C@@H](CC(=O)O)C(=O)N[C@@H](CCCNC(=N)N)C(=O)N[C@H](C(N)=O)[C@@H](C)CC` [JAL-1252, Occ-ala-Phe-ser-Leu-Hyp-Nml-Asp-Arg-Ile-NH2] (HELM PEPTIDE1{[CCCCCCCC(=O)[*:2]].[dA].F.[dS].L.[Hyp].[meL].D.R.I.[am]}$$$$V2.0) yielded an EC50 of less than 1000 nM. `CCCCCCCC(=O)N[C@H](C)C(=O)N[C@@H](Cc1ccccc1)C(=O)NC1(C(=O)N[C@@H](CC(C)C)C(=O)N2C[C@H](N)C[C@H]2C(=O)N(C)[C@@H](CC(C)C)C(=O)N[C@@H](CC(=O)O)C(=O)N[C@@H](CCCNC(=N)N)C(=O)N[C@H](C(N)=O)[C@@H](C)CC)CCCCC1` [JAL-1454, Occ-ala-Phe-Egz-Leu-Tap-Nml-Asp-Arg-Ile-NH2] (Octanoyl-[dA]F[Ac6c]L[Pro(4R-NH2)][NMeL]DRI-NH2) gave an EC50 of less than 1000 nM. `CCCCCCCC(=O)N1CCC[C@H](C(=O)N[C@@H](Cc2ccccc2)C(=O)N[C@H](CCCN)C(=O)N[C@@H](CC(C)C)C(=O)N2C[C@H](N)C[C@H]2C(=O)N(C)[C@@H](CC(C)C)C(=O)N[C@@H](CC(=O)O)C(=O)N[C@@H](CCCNC(=N)N)C(=O)N[C@H](C(N)=O)[C@@H](C)CC)C1` [JAL-1318, Occ-Sni-Phe-orn-Leu-Tap-Nml-Asp-Arg-Ile-NH2] (Octanoyl-[X2]F[dOrn]L[Pro(4R-NH2)][NMeL]DRI-NH2) gave an EC50 of less than 1000 nM. With `CCCCCCCC(=O)N[C@H](C)C(=O)N[C@@H](Cc1ccccc1)C(=O)N[C@H](CCCNC(=N)N)C(=O)N[C@@H](CC(C)C)C(=O)N1C[C@H](N)C[C@H]1C(=O)N[C@@H](CC(C)C)C(=O)N[C@@H](CC(=O)O)C(=O)N[C@@H](CCCNC(=N)N)C(=O)N[C@H](C(N)=O)[C@@H](C)CC` [JAL-1250, Occ-ala-Phe-arg-Leu-Tap-Leu-Asp-Arg-Ile-NH2] (HELM PEPTIDE1{[CCCCCCCC(=O)[*:2]].[dA].F.[dR].L.[N[C@@H]1C[C@@H](C(=O)[*:2])N([*:1])C1].L.D.R.I.[am]}$$$$V2.0) the EC50 was less than 1000 nM. For `CCCCCCCC(=O)N1CCC[C@H](C(=O)N[C@@H](Cc2ccccc2)C(=O)N[C@H](CCCN(C)C)C(=O)N[C@@H](CC(C)C)C(=O)N2C[C@H](O)C[C@H]2C(=O)N(C)[C@@H](CC(C)C)C(=O)N[C@H](C(=O)N[C@@H](CCCNC(=N)N)C(=O)NC2CCCCCC2)[C@@H](C)O)C1` [JAL-1895, Occ-Sni-Phe-orn(Me2)-Leu-Hyp-Nml-Thr-Arg-Che] (Octanoyl-[X2]F[dOrn(Me2)]L[Hyp][NMeL]TR-NHcycloheptyl), the EC50 was less than 1000 nM. For `CCCCCCCC(=O)N[C@H](C)C(=O)N[C@@H](Cc1ccccc1)C(=O)N[C@H](CNCC(C)(C)C)C(=O)N[C@@H](CC(C)C)C(=O)N1C[C@H](N)C[C@H]1C(=O)N(C)[C@@H](CC(C)C)C(=O)N[C@@H](CC(=O)O)C(=O)N[C@@H](CCCNC(=N)N)C(=O)N[C@H](C(N)=O)[C@@H](C)CC` [JAL-1463, Occ-ala-Phe-dap(1464)-Leu-Tap-Nml-Asp-Arg-Ile-NH2] (Octanoyl-[dA]F[X12]L[Pro(4R-NH2)][NMeL]DRI-NH2), the EC50 was less than 1000 nM. `CCCCCCCC(=O)N1CCC[C@H](C(=O)N[C@@H](Cc2ccccc2)C(=O)N[C@H](CC(C)C)C(=O)N[C@@H](CC(C)C)C(=O)N2C[C@H](O)C[C@H]2C(=O)N[C@@H](CC(C)(C)C)C(=O)N[C@@H](CC(=O)O)C(=O)N2CCC[C@H]2C(=O)NC2CCCCCC2)C1` [JAL-1595, Occ-Sni-Phe-leu-Leu-Hyp-Npg-Asp-Pro-Che] (Octanoyl-[X2]F[dL]L[Hyp][tBuAla]DP-NHcycloheptyl) gave an EC50 of less than 1000 nM. For `CCCCCCCC(=O)N[C@H](C)C(=O)N[C@@H](Cc1ccccc1)C(=O)N[C@H](CC(C)C)C(=O)N[C@@H](CC(C)C)C(=O)N1C[C@H](O)C[C@H]1C(=O)N(C)[C@@H](CC(C)C)C(=O)N[C@H](C(=O)N[C@@H](CCCNC(=N)N)C(=O)N[C@H](C(N)=O)[C@@H](C)CC)C(C)C` [JAL-1332, Occ-ala-Phe-leu-Leu-Hyp-Nml-Val-Arg-Ile-NH2] (HELM PEPTIDE1{[CCCCCCCC(=O)[*:2]].[dA].F.[dL].L.[Hyp].[meL].V.R.I.[am]}$$$$V2.0), the EC50 was less than 1000 nM.
